The text below walks through data of US20260109729A1, “RUTHENIUM COMPLEXES FOR INHIBITION OF GALECTINS, METHOD OF THEIR PREPARATION, AND USE THEREOF” (priority 2023, published 2026).

Read-outs that look alike come from different tables or passages of the source.

Test [1] concerns the target T1, human galectin-1 (Homo sapiens, UniProt P09382). Nature of the test: Fluorescence anisotropy competitive inhibition assay, galectin 1. It counts as binding. Further details: His6-GST (N, cleaved yes); made in house; host or cells: E. coli BL21 RILP. The settings on record: for Ki: Ki calculated from IC50 with online calculator, read-out: Ki against human galectin-1; for Ki / IC50: average and standard deviation; for affinity to galectin-1 compared with the fluorescent probe: exact Ki not determinable, given as possible range; for IC50: protein 500 nM, probe 100 nM, at least three measurements, read-out: IC50 against human galectin-1 under measured condition. As to the method:
Analytical Biochemistry 2004, 334 (1), 36-47, page 39, paragraph “Fluorescence Polarization”. As a competitive fluorescent probe, the compound 3,3′-dideoxy-3-[4-(fluorescein-5-yl-carbonylamino-methyl)-1H-1,2,3-triazol-1-yl]-3′-[4-(3-fluorophenyl)-1H-1,2,3-triazol-1-yl]-1,1′-sulfanediyl-di-β-D-galactopyranoside was used in the measurements. Fluorescence anisotropy was measured using a Tecan Spark multimode microplate reader equipped with fluorescence polarization filters and black polystyrene round-bottomed microtiter plates (Corning®, 384 wells) in samples with a final volume of […]. The samples were incubated in the dark for 30 minutes before measurement.
The Kd values were obtained using nonlinear regression performed by GraphPad Prism software (version 10.0.2, GraphPad, USA) for direct ligand-protein interaction using the formula: A=A0+(Amax−A0)×([G]/(Kd+[G])), where A0 is the anisotropy of the probe in the absence of galectin, Amax is the maximum achieved anisotropy of the probe with increasing galectin concentration, [G] is the total galectin concentration in a measured sample, and A is the measured anisotropy of the measured sample. […] Raw anisotropy data from the reader were plotted against concentration using GraphPad Prism software (version 10.0.2, GraphPad, USA) and nonlinear fitting “[Inhibitor]vs. response—Variable slope (four parameters)” analysis was used to calculate the IC50 values (half-maximal inhibitory concentration) for each titration. The IC50 values from each titration experiment were then used to calculate the inhibition constant Ki using an online calculator (http://websites.umich.edu/-shaomengwanglab/software/calc_ki/index.html). The used model is described in the following publication: Development and optimization of a binding assay for the XIAP BIR3 domain using fluorescence polarization, Analytical Biochemistry 2004, 332 (2), 261-273.

For test [2], the target named is T2, human galectin-3-CRD (Homo sapiens, UniProt P17931).
T2 construct: human galectin-3-CRD; fused on or other part: N-terminal His6-GST tag, cleaved off by TEV protease before the fluorescence anisotropy test
Nature of the test: Fluorescence anisotropy competitive inhibition assay, galectin 3. In kind it is binding. The settings on record: average and standard deviation; for Ki: Ki calculated from IC50 with online calculator, read-out: Ki against human galectin 3-CRD; for IC50: protein 50 nM, probe 5 nM, at least three measurements, read-out: IC50 against human galectin-3-CRD under measured condition. As to the method:
As a competitive fluorescent probe, the compound 3,3′-dideoxy-3-[4-(fluorescein-5-yl-carbonylamino-methyl)-1H-1,2,3-triazol-1-yl]-3′-[4-(3-fluorophenyl)-1H-1,2,3-triazol-1-yl]-1,1′-sulfanediyl-di-β-D-galactopyranoside was used in the measurements. Fluorescence anisotropy was measured using a Tecan Spark multimode microplate reader equipped with fluorescence polarization filters and black polystyrene round-bottomed microtiter plates (Corning®, 384 wells) in samples with a final volume of […]. The samples were incubated in the dark for 30 minutes before measurement.
The Kd values were obtained using nonlinear regression performed by GraphPad Prism software (version 10.0.2, GraphPad, USA) for direct ligand-protein interaction using the formula: A=A0+(Amax−A0)×([G]/(Kd+[G])), where A0 is the anisotropy of the probe in the absence of galectin, Amax is the maximum achieved anisotropy of the probe with increasing galectin concentration, [G] is the total galectin concentration in a measured sample, and A is the measured anisotropy of the measured sample. […] Raw anisotropy data from the reader were plotted against concentration using GraphPad Prism software (version 10.0.2, GraphPad, USA) and nonlinear fitting “[Inhibitor]vs. response—Variable slope (four parameters)” analysis was used to calculate the IC50 values (half-maximal inhibitory concentration) for each titration. The IC50 values from each titration experiment were then used to calculate the inhibition constant Ki using an online calculator (http://websites.umich.edu/-shaomengwanglab/software/calc_ki/index.html).

In test [3] the test system is SK-OV-3. Nature of the test: MTT cytotoxicity assay, SK-OV-3. It counts as cell-based, human. The settings on record: ovarian carcinoma, 24-72 hours incubation. How it is done: (§1) This assay is based on the reduction of the yellow soluble 3-[4,5-dimethylthiazol-2-yl]-2,5-diphenyl tetrazolium bromide (MTT) to insoluble formazan (blue star-shaped crystals). The reaction takes place on the mitochondrial membrane of living cells. Subsequently, the formazan is dissolved by adding a strong detergent (dimethyl sulfoxide, DMSO), and the color is evaluated spectrophotometrically at a wavelength of 570-595 nm.
(§2) Human cell lines derived from ovarian carcinoma (A2780, SK-OV-3), breast carcinoma (MDA-MB-231, MCF-7), and non-tumor epithelial line MCF-10A were used for the cytotoxicity test. Additionally, a cell line derived from embryonic kidney cells HEK293 was used as a control. A2780 cells were cultured in RPMI 1640 medium (Sigma-Aldrich) containing 10% fetal bovine serum (Biochrom AG), 2 mM L-glutamine (Gibco), and 100 U/mL penicillin/streptomycin (Biosera). SK-OV-3 cells were cultured in McCoy's medium (Sigma-Aldrich) containing 10% fetal bovine serum (Biochrom AG) and 100 U/mL penicillin/streptomycin (Biosera). […] After dissolving the blue crystals, the absorbance was measured in the wells of the plate on an ELISA Reader (Multidetection reader Infinititte M1000 PRO (Tecan Group Ltd, CH)) at a wavelength of 570-595 nm. Evaluation of IC50 as the inflection point of the curve of measured absorbance values using the GraphPad Prism software (version 10.0.2, GraphPad, USA).
Background: Tetrazolium assays rely on reduction of a dye to a coloured formazan, in cell work by metabolically active cells.

Test [4] concerns the target T1, human galectin-1. The settings on record: read-out: IC50 against human galectin-1; competitive ELISA, immobilized asialofetuin, His6-GST-Gal-1; average and standard deviation, at least 3 measurements. How it is done:
(§3) An immobilized competitive ligand, asialofetuin (ASF), a glycoprotein terminated with LacNAc residues interacting with galectins, was used. Wells of microtiter plates (96-well BRAND plates-F-pureGrade, BRAND, Germany) were coated with ASF ([…] in 0.1M CO3^2−/HCO3^− buffer pH 9-9.8; 50 μL per well) and incubated overnight in a humid chamber at […]. Subsequently, wells were washed with 1×200 μL PBS (137 mM NaCl, 2.7 mM KCl, 8 mM Na2HPO4, and 2 mM KH2PO4, pH 7.4). PBS-Tween washes were performed 3×5 min following each subsequent step. The wells were blocked with 3% BSA in PBS (200 μL per well) and incubated for 1 hour at room temperature. Increasing concentrations of inhibitors in PBS buffer were mixed with His6-GST-Gal-3 or His6-GST-Gal-1 (target concentration 5 or 10 μM) and incubated in wells with ASF for 1 hour. […] The signal intensity was measured spectrophotometrically using the Multidetection reader Infinititte M1000 PRO (Tecan Group Ltd, CH) at 450 nm and corresponds to the amount of bound galectin. The respective inhibitory constant (IC50) was calculated from nonlinear regression (dose-response inhibition slope) of sigmoidal curves using GraphPad Prism software (version 10.0.2, GraphPad, USA).

The test system of test [5] is MCF-10A. Nature of the test: MTT cytotoxicity assay, MCF-10A. It counts as cell-based, human. The settings on record: non-tumor epithelial line, 24-72 hours incubation. How it is done: as §1, §2
The test system of test [6] is MDA-MB-231. Nature of the test: MTT cytotoxicity assay, MDA-MB-231. It counts as cell-based, human. The settings on record: breast carcinoma, 24-72 hours incubation. As to the method:
as §1, §2

The target of test [7] is T3, human galectin-3 (Homo sapiens, UniProt P17931).
T3 construct: made in house; host or cells: E. coli BL21 RILP
Nature of the test: Competitive ELISA with immobilized asialofetuin, galectin 3. The settings on record: His6-GST-Gal-3, average and standard deviation, at least 3 measurements, read-out: IC50 against human galectin-3. In kind it is binding. As to the method: as §3
(An ELISA detects its analyte on a solid surface through an enzyme-linked reagent.)

The subject of test [8] is MCF-7. Nature of the test: MTT cytotoxicity assay, MCF-7. In kind it is cell-based, human. The settings on record: breast carcinoma, 24-72 hours incubation. As to the method:
as §1, §2

Test [9] has as its system A2780. Nature of the test: MTT cytotoxicity assay, A2780. It counts as cell-based, human. The settings on record: ovarian carcinoma, 24-72 hours incubation. As to the method: as §1, §2
Test [10] deals with HEK-293. Nature of the test: MTT cytotoxicity assay, HEK-293. The settings on record: embryonic kidney control cell line, 24-72 hours incubation. It counts as cell-based, human. How it is done:
as §1, §2

As usually defined, the Ki is a measure of affinity in units of concentration, obtained from inhibition or displacement. For orientation: IC50 means the concentration needed to halve the response being measured.

T1 sequence (P09382 whole entry): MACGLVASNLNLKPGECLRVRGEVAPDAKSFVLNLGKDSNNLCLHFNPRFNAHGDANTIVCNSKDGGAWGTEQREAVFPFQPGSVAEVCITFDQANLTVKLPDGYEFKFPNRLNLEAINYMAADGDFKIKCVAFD
T2 sequence (P17931 114-250 limits assumed): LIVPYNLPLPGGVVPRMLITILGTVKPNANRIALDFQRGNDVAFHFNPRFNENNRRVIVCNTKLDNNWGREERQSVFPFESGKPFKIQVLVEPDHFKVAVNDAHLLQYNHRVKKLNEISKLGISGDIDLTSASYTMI
T3 sequence (P17931 whole entry): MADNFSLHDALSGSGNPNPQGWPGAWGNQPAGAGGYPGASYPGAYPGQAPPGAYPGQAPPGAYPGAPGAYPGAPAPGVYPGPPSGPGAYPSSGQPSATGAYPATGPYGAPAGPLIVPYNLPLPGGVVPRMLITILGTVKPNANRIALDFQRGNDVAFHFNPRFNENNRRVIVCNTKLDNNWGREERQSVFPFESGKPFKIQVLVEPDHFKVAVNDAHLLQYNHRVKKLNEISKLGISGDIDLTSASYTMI

In the case of “Ruthenium Complex with Benzene and Cl Ligands and PF6^− Counterions [Compound 7]”, in test [1], the Ki was below 0.005 µM, the “affinity to galectin-1 compared with the fluorescent probe” value was “significantly better affinity to galectin-1 than used fluorescent probe” and the IC50 worked out at 0.307 ± 0.033 µM. Further, in [2], the Ki is 3.54 ± 0.32 µM and the IC50 is 16.8 ± 1.5 µM.

In the case of “Ruthenium Complex with Hexamethylbenzene and Cl Ligands and PF6^− Counterions [Compound 8]”, in test [1], the Ki was 0.114 ± 0.011 µM and the IC50 worked out at 0.498 ± 0.026 µM. In [2], the inhibitory constant (Ki) was 43.4 ± 13 µM and the IC50 stood at 205 ± 63 µM.

In the case of “Ruthenium Complex with p-Cymene and Cl Ligands and BF4^− Counterions [Compound 5]”, in test [1], the Ki was below 0.005 µM, the “affinity to galectin-1 compared with the fluorescent probe” value is “significantly better affinity to galectin-1 than used fluorescent probe” and the IC50 is 0.187 ± 0.004 µM. For the same substance, in [2], the Ki was 10.7 ± 1.9 µM and the IC50 is 50.7 ± 9 µM.

As for “Ruthenium Complex with p-Cymene and Cl Ligands and Cl^− Counterions [Compound 4]”, the IC50 in test [3] is above 200 µM; in test [4], 0.026 ± 0.004 µM; in test [5], above 200 µM; in test [6], above 200 µM; in test [7] it was 87.2 ± 4.4 µM; in test [8] it was above 200 µM. Besides, the IC50 is 0.328 ± 0.018 µM in test [1], above 200 µM in [9], 158 ± 42 µM in test [10] and 100 ± 12 µM in [2]. For the same substance, the Ki in [1] is 0.018 ± 0.011 µM; in test [2], 21.2 ± 2.7 µM.

With “Ruthenium Complex with p-Cymene and Cl Ligands and PF6^− Counterions [Compound 6]”, the concentration for half-maximal inhibition (IC50) in test [3] is above 200 µM; in test [6], 141 ± 8 µM; in test [7] it was 104 ± 38 µM; in [1] it was 0.231 ± 0.017 µM; in test [10], 174 ± 28 µM; in test [2], 71.7 ± 0.84 µM. The Ki in test [1] was below 0.005 µM; in test [2] it was 15.2 ± 0.2 µM. Moreover, in [1], the “affinity to galectin-1 compared with the fluorescent probe” value is on record as “significantly better affinity to galectin-1 than used fluorescent probe”.

Regarding “Ruthenium Complex with p-Cymene and I Ligands and I^− Counterions [Compound 9]”, in test [1], the Ki is 0.037 ± 0.009 µM and the IC50 turned out to be 0.37 ± 0.016 µM. Also, in [2], the Ki was 19 ± 3.3 µM and the IC50 amounted to 89.8 ± 16 µM.

For the substance “Ruthenium Complex with p-Cymene and I Ligands and PF6^− Counterions [Compound 10]”, in test [1], the Ki is 0.023 µM and the IC50 amounted to 0.347 ± 0.013 µM. In [2], the Ki was 15.6 ± 1.8 µM and the IC50 stood at 73.5 ± 8.1 µM.
